Data on 42 compounds can be found in ChEMBL document CHEMBL5620374, “Synthesis and bioevaluation of novel stilbene-based derivatives as tubulin/HDAC dual-target inhibitors with potent antitumor activities in vitro and in vivo” (Eur J Med Chem, 2023).

Series [1] concerns K562. As to the kind of experiment: Antiproliferative activity against human K562 cells assessed as cell inhibition rate at 0.1 uM incubated for 72 hrs by MTT assay relative to control. It counts as functional. For orientation: Formazan colour is commonly taken as a measure of viable cells.
The subject of series [2] is K562. As to the kind of experiment: Antiproliferative activity against human K562 cells assessed as cell inhibition rate at 1 uM incubated for 72 hrs by MTT assay relative to control. Format: functional.
The subject of series [3] is K562. As to the kind of experiment: Antiproliferative activity against human K562 cells assessed as cell inhibition rate at 0.01 uM incubated for 72 hrs by MTT assay relative to control. It counts as functional.
Series [4] concerns K562. The experiment in a line: Antiproliferative activity against human K562 cells incubated for 72 hrs by MTT assay. It counts as functional, cell-based. Particulars: K562, 72 h.
The nature of series [5]: Antiproliferative activity against human HFL1 cells incubated for 72 hrs by MTT assay. It counts as toxicity, cell-based.
The next series has as its system MDA-MB-231. As to the kind of experiment: cells. Particulars: Homo sapiens, MDA-MB-231, 72 h.
The subject of a further series is A549. As to the kind of experiment: cells. As to conditions: Homo sapiens, A549, 72 h.
In another series the test system is A2780. As to the kind of experiment: cells. Particulars: Homo sapiens, A2780, 72 h.
The next series concerns B16-F10. The experiment in a line: Antiproliferative activity against mouse B16-F10 cells incubated for 72 hrs by MTT assay. It counts as functional, cell-based. As to conditions: B16-F10, 72 h.
For the next series, the system named is MCF7. As to the kind of experiment: cells. Particulars: Homo sapiens, MCF7, 72 h.

Description for A2780: Antiproliferative activity against human A2780 cells incubated for 72 hrs by MTT assay
Description for A549: Antiproliferative activity against human A549 cells incubated for 72 hrs by MTT assay
Description for MCF7: Antiproliferative activity against human MCF7 cells incubated for 72 hrs by MTT assay
Description for MDA-MB-231: Antiproliferative activity against human MDA-MB-231 cells incubated for 72 hrs by MTT assay

By inhibition is commonly meant the relative decrease from the control value, in per cent. Consider `C=C(c1ccc(OC)c(O)c1)c1cc(/C=C/C(=O)NO)nc2ccccc12`, for which the inhibition at 0.1 µM with K562 [1] was determined as 12.9%. In addition, in the series on K562 [2], the inhibition at 1 µM was 87.3%. Also, the inhibition at 0.01 µM in the series with K562 [3] was -0.17%.
On the same counts, the results for `C=C(c1ccc2[nH]ccc2c1)c1cc(C(=O)Nc2ccccc2N)nc2ccccc12` are 2.75%, 2.75% and -0.17%.
The IC50 is the midpoint of a concentration-inhibition curve. `C=C(c1ccc(OC)c(OCCCCCC(=O)NO)c1)c1cc(C)nc2ccccc12` displayed an IC50 in the series with K562 [4] of 2260 nM.
Still for that read-out and setting: under `C=C(c1ccnc(OC)c1)c1ccc(OC)c(OCC(=O)NO)c1` stands 55 nM; under `C=C(c1ccc(OC)c(C(=O)NO)c1)c1cc(C)nc2ccccc12`, 1320 nM.
As to `C=C(c1ccc(OC)cc1)c1cc(C(=O)Nc2ccccc2N)nc2ccccc12`, in the series with K562 [1], the inhibition at 0.1 µM was determined as 0.24%. Also, the inhibition at 1 µM in the series with K562 [2] worked out at 1.1%. Besides, in the series with K562 [3], the inhibition at 0.01 µM was -0.16%.
Regarding `C=C(c1ccc(OC)c(OCCCCCC(=O)NO)c1)c1ccnc2ccccc12`, in the series with K562 [4], the IC50 came out at 3340 nM.
As for `C=C(c1ccc2[nH]ccc2c1)c1cc(COCC(=O)NO)nc2ccccc12`, the inhibition at 0.1 µM with K562 [1] was 6.23%. The inhibition at 1 µM with K562 [2] was 15%. In addition, the inhibition at 0.01 µM in the series with K562 [3] is 2.28%.
The compound `C=C(c1ccc(OC)c(OCC(=O)NO)c1)c1cc(C)nc2ccccc12` came in with an IC50 at 72 h in series [5] of 195 nM. For the same compound, the IC50 in the series with MDA-MB-231 came out at 32 nM; with A549, 38 nM; in the series with A2780 it was 16 nM; with K562 [4], 8 nM; in the series with B16-F10 it was 28 nM; in the series with MCF7, 55 nM.
As to `C=C(c1cccc(OC/C=C/C(=O)NO)c1)c1cc(C)nc2ccccc12`, the IC50 with K562 [4] was 2740 nM.
Still for that read-out and setting: in the case of `C=C(c1ccc(OC)c(OCCC(=O)NO)c1)c1cc(C)nc2ccccc12` it was 61 nM.
In series [5], `C=C(c1cc(C)nc(C)c1)c1ccc(OC)c(OCC(=O)NO)c1` had an IC50 at 72 h of 264 nM. For the same compound, the IC50 was 111 nM in the series with MDA-MB-231; 69 nM in the series with A549; 36 nM with A2780; 26 nM in the series on K562 [4]; 98 nM in the series with B16-F10; 52 nM in the series with MCF7.
Regarding `C=C(c1ccc(OC)c(O)c1)c1cc(COCC(=O)NO)nc2ccccc12`, in the series on K562 [1], the inhibition at 0.1 µM came out at 6.41%. Further, the inhibition at 1 µM in the series on K562 [2] amounted to 71.5%. Moreover, the inhibition at 0.01 µM in the series with K562 [3] was 0.83%.
Consider `C=C(c1ccc(OC)c(O)c1)c1cc(C(=O)Nc2ccccc2N)nc2ccccc12`, for which the inhibition at 0.1 µM with K562 [1] stood at 3.71%. Also, in the series on K562 [2], the inhibition at 1 µM was found to be 4.26%. In the series with K562 [3], the inhibition at 0.01 µM was found to be 0.16%.
`C=C(c1cccc(OCCCC(=O)NO)c1)c1cc(C)nc2ccccc12` returned an IC50 in the series with K562 [4] of 3000 nM.
For `C=C(c1cc(C)nc(C)c1)c1ccc(OC)c(OC(C)C(=O)NO)c1` (stereo not drawn), the IC50 at 72 h in [5] is 213 nM. Further, the IC50 was 99 nM in the series on MDA-MB-231; 80 nM in the series on A549; 23 nM with A2780; 19 nM in the series with K562 [4]; 72 nM in the series with B16-F10; 19 nM with MCF7.
On to `C=C(c1ccc(OC)c(OCCCC(=O)NO)c1)c1cc(C)nc2ccccc12`, for which the IC50 with K562 [4] worked out at 173 nM.
As for `C=C(c1cc(C)nc(C)c1)c1ccc(OC)c(OCCCC(=O)NO)c1`, it took 516 nM to reach half-maximal inhibition with K562 [4] (IC50).
Still for that read-out and setting: in the case of `C=C(c1cccc(OCCCCCC(=O)NO)c1)c1cc(C)nc2ccccc12` it was 9270 nM.
For the compound `C=C(c1ccc(OC)c(OCC(=O)NO)c1)c1ccnc2ccccc12`, the IC50 in the series on K562 [4] turned out to be 79 nM.
As to `COc1ccc(/C=C\c2cc(OC)c(OC)c(OC)c2)cc1O` [COMBRETASTATIN A4], in the series on K562 [1], the inhibition at 0.1 µM amounted to 88.4%. The compound also displayed an IC50 at 72 h in series [5] of 82 nM. The IC50 in the series with MDA-MB-231 amounted to 29 nM; in the series on A549, 2 nM; in the series on K562 [4], 7 nM; with B16-F10, 7 nM; with MCF7, 71 nM. Further, the inhibition at 1 µM in the series on K562 [2] amounted to 95%. For the same compound, the inhibition at 0.01 µM with K562 [3] amounted to 86.6%.
The compound `C=C(c1ccc(OC)c(C(=O)Nc2ccccc2N)c1)c1cc(C)nc2ccccc12` registered an IC50 in the series on K562 [4] of 22200 nM.
The same measure, in the same setting: under `C=C(c1ccnc(OC)c1)c1ccc(OC)c(OCCCCCC(=O)NO)c1` stands 3860 nM; under `C=C(c1cccc(OC(C)(C)C(=O)NO)c1)c1cc(C)nc2ccccc12`, 6860 nM; under `C=C(c1ccnc(OC)c1)c1ccc(OC)c(OCCCC(=O)NO)c1`, 1140 nM.
Turning to `C=C(c1cc(C)nc(C)c1)c1ccc(OC)c(OCCCCCC(=O)NO)c1`, the IC50 in the series on K562 [4] is 1920 nM.
Same read-out and setting: under `C=C(c1ccc(OC)c(OC(C)C(=O)NO)c1)c1ccnc2ccccc12` (stereo not drawn) stands 69 nM; under `C=C(c1cccc(OCC(=O)NO)c1)c1cc(C)nc2ccccc12`, 2480 nM.
As to `C=C(c1ccc(OC)cc1)c1cc(COCC(=O)NO)nc2ccccc12`, the inhibition at 0.1 µM in the series on K562 [1] was 3%. For the same compound, in the series with K562 [2], the inhibition at 1 µM was 40%. Moreover, the inhibition at 0.01 µM with K562 [3] came to 2.6%.
Consider `C=C(c1cccc(OC(C)C(=O)NO)c1)c1cc(C)nc2ccccc12` (stereo not drawn), for which half-maximal inhibition in the series with K562 [4] (IC50) required 2370 nM.
Regarding `C=C(c1ccc(OC)c(/C=C/C(=O)NO)c1)c1cc(C)nc2ccccc12`, the IC50 at 72 h in [5] is 311 nM. For the same compound, the IC50 in the series on MDA-MB-231 was determined as 11 nM; with A549, 9 nM; in the series with A2780 it was 5 nM; in the series on K562 [4], 42 nM; in the series with B16-F10, 15 nM; with MCF7, 17 nM.
For `C=C(c1ccc2[nH]ccc2c1)c1cc(/C=C/C(=O)NO)nc2ccccc12`, in the series on K562 [1], the inhibition at 0.1 µM came to 3.73%. Moreover, the inhibition at 1 µM with K562 [2] came to 4.78%. For the same compound, in the series on K562 [3], the inhibition at 0.01 µM worked out at 3.16%.
The compound `C=C(c1ccc(OC)c(OC(C)(C)C(=O)NO)c1)c1cc(C)nc2ccccc12` came in with an IC50 at 72 h in series [5] of 103 nM. Further, the IC50 in the series on MDA-MB-231 was 31 nM; with A549 it was 9 nM; in the series with A2780, 8 nM; in the series on K562 [4], 5 nM; in the series with B16-F10, 4 nM; with MCF7 it was 44 nM.
With `C=C(c1ccc(OC)c(OCCCC(=O)NO)c1)c1ccnc2ccccc12`, half-maximal inhibition in the series on K562 [4] (IC50) required 1460 nM.
Same read-out and setting: in the case of `C=C(c1ccc(OC)c(OC(F)(F)C(=O)NO)c1)c1cc(C)nc2ccccc12` it was 204 nM; in that of `C=C(c1ccc(OC)c(OCCCCC(=O)NO)c1)c1cc(C)nc2ccccc12`, 1840 nM; in that of `C=C(c1ccnc(C)c1)c1ccc(OC)c(OCCCC(=O)NO)c1`, 1490 nM.
`C=C(c1ccnc(C)c1)c1ccc(OC)c(OCC(=O)NO)c1` registered an IC50 in the series with K562 [4] of 107 nM.
As to `C=C(c1ccnc(C)c1)c1ccc(OC)c(OCCCCCC(=O)NO)c1`, the IC50 in the series with K562 [4] was found to be 2880 nM.
On the same count and under the same terms, under `C=C(c1ccnc(OC)c1)c1ccc(OC)c(OC(C)C(=O)NO)c1` (stereo not drawn) stands 61 nM.
Turning to `C=C(c1ccc(OC)cc1)c1cc(/C=C/C(=O)NO)nc2ccccc12`, the inhibition at 0.1 µM in the series with K562 [1] came to 6.82%. Further, in the series with K562 [2], the inhibition at 1 µM is 43.5%. In the series with K562 [3], the inhibition at 0.01 µM came to 1.41%.
For `C=C(c1ccnc(C)c1)c1ccc(OC)c(OC(C)C(=O)NO)c1` (stereo not drawn), in the series with K562 [4], the IC50 is 60 nM.
